SMILES strings stand for the structures.

The experiment has as its target T1, human PAH with the R408W mutation (Homo sapiens, UniProt P00439, R408W).
T1 construct: expressed in transfected cells
T1 sequence (P00439 1-452 R408W): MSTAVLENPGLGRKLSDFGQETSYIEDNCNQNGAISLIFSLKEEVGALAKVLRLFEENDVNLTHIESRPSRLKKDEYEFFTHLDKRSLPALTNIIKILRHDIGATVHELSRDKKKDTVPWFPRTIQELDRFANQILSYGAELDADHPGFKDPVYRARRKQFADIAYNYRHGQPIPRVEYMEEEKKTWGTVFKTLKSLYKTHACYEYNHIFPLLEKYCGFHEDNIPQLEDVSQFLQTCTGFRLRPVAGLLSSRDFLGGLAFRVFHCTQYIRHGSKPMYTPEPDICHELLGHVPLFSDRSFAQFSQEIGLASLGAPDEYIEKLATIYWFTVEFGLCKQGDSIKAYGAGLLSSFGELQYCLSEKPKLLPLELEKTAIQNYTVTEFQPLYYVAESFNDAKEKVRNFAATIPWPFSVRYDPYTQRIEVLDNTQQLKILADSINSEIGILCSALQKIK
In words: Cell Based Phenylalanine Flux Assay.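 Note: after compound treatment, cells received sepiapterin plus isotope-labelled Phenylalanine for 4 hours, then labelled Tyrosine in the medium was quantified, 10-point 2-fold dilution series run in duplicate.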 The settings on record: A375 cells expressing R408W PAH; 24 hrs with compound, then 20 µM sepiapterin and 800 µM 13C9,15N-Phenylalanine for 4 hours; 13C-Tyrosine by LC-MS; average where tested multiple times; read-out: AC50.

Broadly, the AC50 is the concentration at which the activity in the assay is half-maximal. Take `Cn1ccc(-c2ncc(C(=O)N3CCc4[nH]cnc4C3c3cc4ccccn4n3)o2)n1` (stereo not drawn): the AC50 was more than 5 µM.
For `Cc1c(-c2ncc(C(=O)N3CCc4[nH]cnc4C3c3cc4ccccn4n3)o2)cnn1C` (stereo not drawn), the AC50 was more than 5 µM.
In the case of `Cc1cccn2nc(C3c4nc[nH]c4CCN3C(=O)c3nnc(-c4cn[nH]c4)o3)cc12` (stereo not drawn) [listing 1 of 2 here], the AC50 is more than 5 µM.
To `O=C(c1cnc(-c2ncccn2)o1)N1CCc2[nH]cnc2C1c1cc2c(F)cccn2n1` (stereo not drawn) [listing 1 of 2 here] belongs more than 5 µM; to `O=C(c1nnc(-c2ccc(C(F)(F)F)cn2)o1)N1CCc2[nH]cnc2C1c1cc2ccccn2n1` (stereo not drawn), more than 5 µM.
To `Cc1cccc2cc(C3c4nc[nH]c4CCN3c3nnc(C4CCC4)o3)nn12` (stereo not drawn) belongs more than 5 µM.
For `c1cncc(-c2nnc(N3CCc4[nH]cnc4C3c3cc4ccccn4n3)o2)c1` (stereo not drawn) [listing 1 of 2 here], the AC50 was more than 5 µM.
For `c1cc(C2CC2)c2cc(C3c4nc[nH]c4CCN3c3nnc(-c4ccncn4)o3)nn2c1` (stereo not drawn), the AC50 was more than 5 µM.
To `Cc1cccn2nc(C3c4nc[nH]c4CCN3c3nnc(-c4ccncn4)o3)cc12` (stereo not drawn) [listing 1 of 2 here] belongs more than 5 µM; to `c1ccn2nc(C3c4nc[nH]c4CCN3c3nnc(-c4ccncn4)o3)cc2c1` (stereo not drawn) [listing 1 of 2 here], more than 5 µM; to `Cn1cc(-c2nc(C3CC3)c(C(=O)N3CCc4[nH]cnc4C3c3cc4ccccn4n3)o2)cn1` (stereo not drawn) [listing 1 of 2 here], more than 5 µM.
Regarding `Cn1cc(-c2ncc(C(=O)N3CCc4[nH]cnc4C3c3cc4c(F)cccn4n3)o2)cn1` (stereo not drawn) [listing 1 of 2 here], the AC50 is more than 5 µM.
To `Cn1ncc(C(=O)N2CCc3[nH]cnc3C2c2cc3ccccn3n2)c1C(F)F` (stereo not drawn) belongs 1 to 5 µM; to `CN(C)CCc1ccc2c(C(=O)N3CCc4[nH]cnc4C3c3cc4cccc(C(F)(F)F)n4n3)cnn2c1` (stereo not drawn) [listing 1 of 2 here], more than 5 µM; to `Cn1ncnc1C(=O)N1CCc2[nH]cnc2C1c1cc2ccccn2n1` (stereo not drawn), 1 to 5 µM.
In the case of `Cn1cc(-c2ncc(C(=O)N3CCc4[nH]cnc4C3c3cc4ccccn4n3)o2)cn1` (stereo not drawn), the AC50 was 1 to 5 µM.
To `CC1(c2nnc(N3CCc4[nH]cnc4C3c3cc4c(C(F)(F)F)cccn4n3)o2)CC1` (stereo not drawn) belongs 1 to 5 µM; to `O=C(c1nnc(-c2cn[nH]c2)o1)N1CCc2[nH]cnc2C1c1cc2ccccn2n1` (stereo not drawn), 1 to 5 µM.
As to `CC(C)(F)c1nnc(N2CCc3[nH]cnc3C2c2cc3c(C(F)(F)F)cccn3n2)o1` (stereo not drawn), the AC50 was more than 5 µM.
To `Cc1cccn2nc(C3c4nc[nH]c4CCN3c3nnc(C(C)(C)F)o3)cc12` (stereo not drawn) belongs more than 5 µM; to `CC(C)(F)c1nnc(C(=O)N2CCc3[nH]cnc3C2c2cc3ccccn3n2)o1` (stereo not drawn), 1 to 5 µM.
`O=C(C1CN(c2ccccn2)C1)N1CCc2[nH]cnc2C1c1cc2ccccn2n1` (stereo not drawn): the AC50 was in the range of 1 to 5 µM.
To `Cc1nnc(N2CCc3[nH]cnc3C2c2cc3c(OC(F)F)cccn3n2)o1` (stereo not drawn) belongs 1 to 5 µM; to `CC(C)(F)c1nnc(N2CCc3[nH]cnc3C2c2cc3c(C(F)F)cccn3n2)o1` (stereo not drawn), more than 5 µM; to `Cn1cc(-c2nnc(N3CCc4[nH]cnc4C3c3cc4c(C(F)F)cccn4n3)o2)cn1` (stereo not drawn), more than 5 µM.
On to `O=C(c1nc2ccccc2s1)N1CCc2[nH]cnc2C1c1cc2c(C(F)(F)F)cccn2n1` (stereo not drawn), for which the AC50 was 1 to 5 µM.
On to `O=C(c1ncco1)N1CCc2[nH]cnc2C1c1cc2c(F)cccn2n1` (stereo not drawn), for which the AC50 lay in the range of 1 to 5 µM.
To `Cc1nnc(C(=O)N2CCc3[nH]cnc3C2c2cc3c(F)cccn3n2)s1` (stereo not drawn) belongs 1 to 5 µM.
Consider `Cc1cccn2nc(C3c4nc[nH]c4CCN3C(=O)c3nnc(-c4cn[nH]c4)o3)cc12` (stereo not drawn) [listing 2 of 2 here], for which the AC50 was 1 to 5 µM.
Turning to `Nc1cnc(N2CCc3[nH]cnc3C2c2cc3cccc(C(F)(F)F)n3n2)nc1` (stereo not drawn), the AC50 is more than 5 µM.
To `Nc1cnc(N2CCc3[nH]cnc3C2c2cc3cccc(Cl)n3n2)nc1` (stereo not drawn) belongs 1 to 5 µM.
Take `Clc1cccc2cc(C3c4nc[nH]c4CCN3c3nnc(C4CCC4)o3)nn12` (stereo not drawn): the half-maximal activity concentration (AC50) was 1 to 5 µM.
To `Fc1cccc2cc(C3c4nc[nH]c4CCN3c3nnc(C(F)(F)F)o3)nn12` (stereo not drawn) belongs 1 to 5 µM; to `Cc1cccc2cc(C3c4nc[nH]c4CCN3c3ncc(N)cn3)nn12` (stereo not drawn), 1 to 5 µM.
To `Nc1cnc(N2CCc3[nH]cnc3C2c2cc3ccccn3n2)nc1` (stereo not drawn) belongs more than 5 µM; to `O=C(c1nccs1)N1CCc2[nH]cnc2C1c1cc2ccccn2n1` (stereo not drawn), 1 to 5 µM.
With `O=C(c1ncco1)N1CCc2[nH]cnc2C1c1cc2ccccn2n1` (stereo not drawn), the concentration at half-maximal activity (AC50) lay in the range of 1 to 5 µM.
Turning to `FC(F)c1cccn2nc(C3c4nc[nH]c4CCN3c3nnc(-c4cnccn4)o3)cc12` (stereo not drawn), the concentration at half-maximal activity (AC50) fell in the range of 1 to 5 µM.
To `O=C(c1cnc(-c2ncccn2)o1)N1CCc2[nH]cnc2C1c1cc2c(C(F)F)cccn2n1` (stereo not drawn) belongs more than 5 µM; to `O=C(c1cnc(-c2ncccn2)o1)N1CCc2[nH]cnc2C1c1cc2c(C(F)(F)F)cccn2n1` (stereo not drawn), 1 to 5 µM.
To `c1cc(C2CC2)c2cc(C3c4nc[nH]c4CCN3c3nnc(-c4cnccn4)o3)nn2c1` (stereo not drawn) belongs 1 to 5 µM.
To `O=C(c1cnc(-c2ncccn2)o1)N1CCc2[nH]cnc2C1c1cc2c(F)cccn2n1` (stereo not drawn) [listing 2 of 2 here] belongs more than 5 µM; to `Cc1cccn2nc(C3c4nc[nH]c4CCN3C(=O)c3cnc(-c4ncccn4)o3)cc12` (stereo not drawn), 1 to 5 µM; to `c1cnc(-c2nnc(N3CCc4[nH]cnc4C3c3cc4ccccn4n3)o2)nc1` (stereo not drawn), 1 to 5 µM.
As to `c1ccn2nc(C3c4nc[nH]c4CCN3c3nnc(-c4cnccn4)o3)cc2c1` (stereo not drawn), the AC50 was 1 to 5 µM.
To `COCc1nnc(C(=O)N2CCc3[nH]cnc3C2c2cc3ccccn3n2)o1` (stereo not drawn) belongs 1 to 5 µM; to `Fc1cccn2nc(C3c4nc[nH]c4CCN3c3nnc(C4CCC4)o3)cc12` (stereo not drawn), 1 to 5 µM; to `FC(F)c1cccc2cc(C3c4nc[nH]c4CCN3c3nnc(C4CCC4)o3)nn12` (stereo not drawn), 1 to 5 µM.
To `FC(F)(F)c1cccc2cc(C3c4nc[nH]c4CCN3c3nnc(C4CCC4)o3)nn12` (stereo not drawn) belongs 1 to 5 µM; to `Cc1nnc(C(=O)N2CCc3[nH]cnc3C2c2cc3ccccn3n2)s1` (stereo not drawn), 1 to 5 µM.
To `CC(C)(C)c1nnc(N2CCc3[nH]cnc3C2c2cc3c(F)cccn3n2)o1` (stereo not drawn) belongs more than 5 µM; to `CC(C)(C)c1nnc(N2CCc3[nH]cnc3C2c2cc3cccc(C(F)F)n3n2)o1` (stereo not drawn), more than 5 µM; to `CC(C)(C)c1nnc(N2CCc3[nH]cnc3C2c2cc3cccc(C(F)(F)F)n3n2)o1` (stereo not drawn), more than 5 µM.
On to `CC(C)(C)c1nnc(N2CCc3[nH]cnc3C2c2cc3cccc(Cl)n3n2)o1` (stereo not drawn), for which the AC50 was more than 5 µM.
As to `Cc1cccc2cc(C3c4nc[nH]c4CCN3c3nnc(C(C)(C)C)o3)nn12` (stereo not drawn), the AC50 lay in the range of 1 to 5 µM.
Regarding `CC(C)(C)c1nnc(N2CCc3[nH]cnc3C2c2cc3ccccn3n2)o1` (stereo not drawn), the AC50 lay within 1 to 5 µM.
As for `CN(C)c1ccc2c(C(=O)N3CCc4[nH]cnc4C3c3cc4cccc(C(F)F)n4n3)cnn2c1` (stereo not drawn), the AC50 lay in the range of 1 to 5 µM.
Regarding `CN(C)c1ccc2c(C(=O)N3CCc4[nH]cnc4C3c3cc4cccc(F)n4n3)cnn2c1` (stereo not drawn), the AC50 was in the range of 1 to 5 µM.
To `FC(F)c1cccn2nc(C3c4nc[nH]c4CCN3c3nnc(-c4cccnn4)o3)cc12` (stereo not drawn) belongs 1 to 5 µM; to `FC(F)(F)c1cccn2nc(C3c4nc[nH]c4CCN3c3nnc(-c4cccnn4)o3)cc12` (stereo not drawn), 1 to 5 µM; to `Cc1cccn2nc(C3c4nc[nH]c4CCN3c3nnc(-c4cccnn4)o3)cc12` (stereo not drawn), 1 to 5 µM.
To `c1cnnc(-c2nnc(N3CCc4[nH]cnc4C3c3cc4ccccn4n3)o2)c1` (stereo not drawn) belongs 1 to 5 µM; to `c1cncc(-c2nnc(N3CCc4[nH]cnc4C3c3cc4ccccn4n3)o2)c1` (stereo not drawn) [listing 2 of 2 here], 1 to 5 µM.
To `Cc1nnc(CCC(=O)N2CCc3[nH]cnc3C2c2cc3ccccn3n2)s1` (stereo not drawn) belongs more than 5 µM; to `Cn1nc(C(F)F)cc1C(=O)N1CCc2[nH]cnc2C1c1cc2ccccn2n1` (stereo not drawn), 1 to 5 µM; to `Cc1cccn2nc(C3c4nc[nH]c4CCN3c3nnc(-c4ccncn4)o3)cc12` (stereo not drawn) [listing 2 of 2 here], 1 to 5 µM.
Turning to `c1ccn2nc(C3c4nc[nH]c4CCN3c3nnc(-c4ccncn4)o3)cc2c1` (stereo not drawn) [listing 2 of 2 here], the AC50 lay within 1 to 5 µM.
To `Cn1cc(-c2nc(C3CC3)c(C(=O)N3CCc4[nH]cnc4C3c3cc4ccccn4n3)o2)cn1` (stereo not drawn) [listing 2 of 2 here] belongs 1 to 5 µM.
`O=C(c1ocnc1C1CC1)N1CCc2[nH]cnc2C1c1cc2cccc(C(F)(F)F)n2n1` (stereo not drawn): the AC50 was 1 to 5 µM.
With `Cn1ccc(-c2ncc(C(=O)N3CCc4[nH]cnc4C3c3cc4c(C(F)F)cccn4n3)o2)n1` (stereo not drawn), the AC50 was 1 to 5 µM.
In the case of `Cn1cc(-c2ncc(C(=O)N3CCc4[nH]cnc4C3c3cc4c(C(F)F)cccn4n3)o2)cn1` (stereo not drawn), the AC50 lay within 1 to 5 µM.
To `Cn1cc(-c2ncc(C(=O)N3CCc4[nH]cnc4C3c3cc4c(F)cccn4n3)o2)cn1` (stereo not drawn) [listing 2 of 2 here] belongs 1 to 5 µM; to `COCCc1ccc2c(C(=O)N3CCc4[nH]cnc4C3c3cc4ccccn4n3)cnn2c1` (stereo not drawn), more than 5 µM; to `Cc1cccn2nc(C3c4nc[nH]c4CCN3C(=O)C3CCC3)cc12` (stereo not drawn), more than 5 µM.
To `O=C(C1CCC1)N1CCc2[nH]cnc2C1c1cc2ccccn2n1` (stereo not drawn) belongs more than 5 µM.
In the case of `Nc1ccc(N2CCc3[nH]cnc3C2c2cc3c(C(F)F)cccn3n2)nc1` (stereo not drawn), the AC50 is 1 to 5 µM.
To `Nc1ccc(N2CCc3[nH]cnc3C2c2cc3ccccn3n2)nc1` (stereo not drawn) belongs more than 5 µM; to `CN(C)CCc1ccc2c(C(=O)N3CCc4[nH]cnc4C3c3cc4c(F)cccn4n3)cnn2c1` (stereo not drawn), 1 to 5 µM; to `Cc1cccn2nc(C3c4nc[nH]c4CCN3C(=O)c3cnn4cc(CCN(C)C)ccc34)cc12` (stereo not drawn), 1 to 5 µM.
To `CN(C)CCc1ccc2c(C(=O)N3CCc4[nH]cnc4C3c3cc4cccc(C(F)(F)F)n4n3)cnn2c1` (stereo not drawn) [listing 2 of 2 here] belongs 1 to 5 µM.
To `CN(C)Cc1nnc(C(=O)N2CCc3[nH]cnc3C2c2cc3ccccn3n2)o1` (stereo not drawn) belongs more than 5 µM.

These data come from patent US20230365592A1 (Agios Pharmaceuticals, Inc., priority 2022, published 2023).
